From patent US20230346924A1, “MRNA VACCINE COMPRISING ADJUVANT CAPABLE OF KINETIC CONTROL” (PROGENEER INC., priority 2020, published 2023)
Entries after “also recorded” stand apart in the source; their conditions may differ.

Experiments:
[1] = system: T cells isolated from the spleen of an OT-1 mouse; test: OT-1 T cell activation in co-culture of treated BMDCs and T cells; format: cell-based; details: BMDC/T cell co-culture
[2] = system: bone marrow-derived dendritic cells (BMDCs); test: Cytokine secretion by BMDCs (ELISA: IL-12p70, IL-10, type 1 IFN); format: cell-based, mouse
Method: To confirm the efficacy of the composition for an mRNA vaccine of the present invention, an experiment was performed using OVA mRNA which is widely used as an mRNA vaccine. In further detail, first, CleanCap® OVA mRNA (5 moU, L-7210, TriLink Biotechnologies) and Opti-MEM™ (Reduced Serum Medium, ThermoFisher Scientific) were mixed at a volume ratio of 1:49, and Lipofectamine (Lipofectamine™ 2000 Transfection Reagent, ThermoFisher Scientific) and Opti-MEM® were mixed at a volume ratio of 2:23 as a delivery system, and then the above mixtures were mixed again in a volume ratio of 1:1 and reacted for 5 minutes, thereby preparing an mRNA composition. As toll-like receptor agonists, a toll-like receptor 3 agonist, which is polyinosinic-polycytidylic acid (poly I:C, Sigma-Aldrich), a toll-like receptor 4 agonist, which is Lipopolysaccharide (LPS, Sigma-Aldrich), and a toll-like receptor 7 or 8 agonist which is resiquimod (Biorbyt), were used. […]
To confirm the effect of a composition for an mRNA vaccine including a single toll-like receptor in BMDCs, first, BMDCs were treated with a toll-like receptor agonist and modified-mRNA (5-methoxyuridine modified OVA mRNA, TriLink) in the same manner as in Example 12.1, and an antigen presentation degree, amounts of cell surface molecules and levels of cytokines such as interleukin-12p70 (IL-12p70) and interferon were measured. […]

[3] = system: bone marrow-derived dendritic cells (BMDCs); test: Degree of antigen presentation in BMDCs treated with mRNA and toll-like receptor agonist (anti-OVA SIINFEKL antibodies); format: cell-based, mouse; details: compared to mRNA only
Method: To confirm the efficacy of the composition for an mRNA vaccine of the present invention, an experiment was performed using OVA mRNA which is widely used as an mRNA vaccine. In further detail, first, CleanCap® OVA mRNA (5 moU, L-7210, TriLink Biotechnologies) and Opti-MEM™ (Reduced Serum Medium, ThermoFisher Scientific) were mixed at a volume ratio of 1:49, and Lipofectamine (Lipofectamine™ 2000 Transfection Reagent, ThermoFisher Scientific) and Opti-MEM® were mixed at a volume ratio of 2:23 as a delivery system, and then the above mixtures were mixed again in a volume ratio of 1:1 and reacted for 5 minutes, thereby preparing an mRNA composition. As toll-like receptor agonists, a toll-like receptor 3 agonist, which is polyinosinic-polycytidylic acid (poly I:C, Sigma-Aldrich), a toll-like receptor 4 agonist, which is Lipopolysaccharide (LPS, Sigma-Aldrich), and a toll-like receptor 7 or 8 agonist which is resiquimod (Biorbyt), were used. Poly I:C was used after being dispersed in phosphate buffered saline (PBS) at a concentration of 0.8 mg/mL, LPS was used after being dispersed in PBS at a concentration of 0.3 μg/mL, R848 was first dissolved in dimethyl sulfoxide (DMSO) at a concentration of 20 mg/mL, and then the dissolved solution was dispersed in PBS to a concentration of 20 μg/mL and used. In the case of treatment with a single toll-like receptor agonist, poly I:C was treated at 40 μg/mL. LPS was treated at 30 ng/mL, or R848 was treated at […], and in the case of treatment with a combination of agonists, 2 μg/mL of poly I:C and 1 μg/mL of R848 were treated, or 2 ng/mL of LPS and 1 μg/mL of R848 were treated, and in both cases, mRNA was treated at 1 μg/mL.
To identify the efficacy of the composition for an mRNA vaccine of the present invention, as cells for experiments, bone marrow-derived dendritic cells (BMDCs), plasmacytoid dendritic cells (pDCs), and T cells isolated from the spleen of an ovalbumin-specific TCR-bearing mouse (OT-1 transgenic mouse: OT-1 mouse) were used. BMDCs and pDCs were obtained from the bone marrow of a laboratory mouse, C57BL/6 (female, Orient Bio). In further detail, a 6-weeks-old mouse was euthanized, the femur and tibia were cut, and then a medium was flushed to extract internal materials. In addition, the extracted materials were treated with a red blood cell lysis buffer (BioLegend) to remove red blood cells, and used. For pDCs, 6-weeks-old C57BL/6 was euthanized, the femur and tibia were cut, and then a medium was flushed to extract internal materials. The extracted materials were then treated with a red blood cell lysis buffer (BioLegend) to remove red blood cells, and only pDCs were isolated using a pDC isolation kit (Plasmacytoid Dendritic Cell Isolation Kit, mouse, MACS Miltenyi Biotec) to be used in the experiments. Spleen cells were used by extracting the spleen from an OT-1 laboratory mouse, physically grinding the spleen to prepare single cells, washing the cells with PBS, and removing red blood cells with a red blood cell lysis buffer. The obtained cells were then seeded in a culture plate (Corning petri dish) with a size of 100 mm×25 mm to 2×10^6 cells, and cultured under conditions of 5% CO2 and 37° C. As a culture medium, a complete RPMI 1640 medium(Gibco) to which 20 ng/mL of a granulocyte-macrophage colony-stimulating factor (GM-CSF, Recombinant Mouse GM-CSF Protein, R&D Systems) was added, was used. […]

[4] = agonist and mRNA at the same time (0h), compared to mRNA alone
[5] = agonist and mRNA at the same time (0h)
[6] = agonist four hours after mRNA (4h)

Row | Substance | amount of IFN-γ+ T cells ([1]; agonist 4h after mRNA) | level of IL-2 ([1]; agonist 4h after mRNA) | level of secreted IFN-γ ([1]; agonist 4h after mRNA) | amount of IFN-γ+ T cells ([1]; agonist 8h after mRNA) | level of IL-2 ([1]; agonist 8h after mRNA) | level of secreted IFN-γ ([1]; agonist 8h after mRNA) | amount of IFN-γ+ T cells [1, 4] | level of IL-2 [1, 4] | level of secreted IFN-γ [1, 4] | secretion of type 1 IFN [2, 5] | secretion of type 1 IFN [2, 6] | degree of antigen presentation [3, 5] | degree of antigen presentation [3, 6] | degree of antigen presentation ([3]; agonist eight hours after mRNA (8h))
1 | polyinosinic-polycytidylic acid [poly I:C] | markedly increased | highest; also recorded: markedly increased | markedly increased | markedly increased | markedly increased | markedly increased | remarkably reduced | remarkably reduced | remarkably reduced | markedly increased | reduced | remarkably reduced | significantly increased | 
2 | Lipopolysaccharide [LPS] |  |  |  |  |  |  |  |  |  |  |  | reduced | increased | increased
